Test system: human PDE4
Assay: IMAP FP enzymatic assay of PDE4 inhibition
Type: biochemical
Conditions: PDE4 partially purified from human monocytic U-937 cells; fluorescently labeled cAMP substrate; 90 minutes at room temperature; fluorescence polarization
Experimental: PDE4 specifically hydrolyzes cAMP and releases the product AMP. The potency of PDE inhibition by said agents is determined in an in vitro enzymatic assay. The assay is commercially available (IMAP™ FP assay Molecular Devices Corp. (MDS)) and is optimized for the use of human PDE4. Fluorescently labeled cAMP is hydrolyzed by PDE4 and in a second step, binding of labeled product to a large binding partner allowed product detection by fluorescence polarization (FP) measurements.
PDE4 is partially purified from undifferentiated human monocytic cells (U-937) according to Thorpy et al. 1992 (J. Pharmacol. Exp. Ther. 263: 1195). […] In addition, PDE4 preparations are validated by inhibition studies with PDE4-specific and unspecific PDE inhibitors.
Stock solutions of test compounds are made in DMSO and diluted in assay buffer (10 mM Tris-HCl, 10 mM MgCl2, 0.1% BSA 0.05% NaN3, pH 7.2) to the desired concentrations. The solutions used in the assay contained test compound in assay buffer with 2% DMSO.
10 μl of substrate (at a concentration recommended by the manufacturer) are mixed with 5 μl of appropriately diluted PDE and 5 μl of test compound solution. 5 μl of reaction buffer with 2% DMSO are used for control reactions. […] After incubation for 90 minutes at room temperature, 60 μl of binding reagent are added as specified by the manufacturer. Binding is allowed to proceed for 30 minutes and fluorescence polarization is measured. Dose dependence of PDE inhibition is measured by assaying dilution series of test compounds in duplicates. IC50 values are determined from the measured activities by curve fitting.

IC50 | SMILES
880 nM | CC[C@H]1OC(=O)[C@H](C)[C@@H](O)[C@H](C)[C@@H](O[C@@H]2O[C@H](C)C[C@H](N(C)C(=O)N3CCOCC3)[C@H]2O)[C@](C)(OC)C[C@@H](C)C(=O)[C@H](C)[C@H]2N(CCCN(Cc3c(Cl)cncc3Cl)c3ccc(OC)c(OC4CCCC4)c3)C(=O)O[C@]12C [Example 2]
200 nM | CC[C@H]1OC(=O)[C@H](C)[C@@H](OC(=O)CN2CCOCC2)[C@H](C)[C@@H](O[C@@H]2O[C@H](C)C[C@H](N(C)C(=O)CN(C)C)[C@H]2O)[C@](C)(OC)C[C@@H](C)C(=O)[C@H](C)[C@H]2N(CCCOc3cc(C(=O)Nc4c(Cl)cncc4Cl)ccc3OC)C(=O)O[C@]12C [Example 5]
30 nM | CC[C@H]1OC(=O)[C@H](C)[C@@H](O)[C@H](C)[C@@H](O[C@@H]2O[C@H](C)C[C@H](N(C)C(=O)N3CCOCC3)[C@H]2O)[C@](C)(OC)C[C@@H](C)C(=O)[C@H](C)[C@H]2N(CCCOc3cc(C(=O)Nc4c(Cl)cncc4Cl)ccc3OC)C(=O)O[C@]12C [Example 4]
630 nM | CC[C@H]1OC(=O)[C@H](C)[C@@H](O[C@H]2C[C@@](C)(OC)[C@@H](O)[C@H](C)O2)[C@H](C)[C@@H](O[C@@H]2O[C@H](C)C[C@H](N(C)C(=O)N3CCOCC3)[C@H]2O)[C@](C)(OC)C[C@@H](C)C(=O)[C@H](C)[C@H]2N(CCCOc3cc(C(=O)Nc4c(Cl)cncc4Cl)ccc3OC)C(=O)O[C@]12C [Example 3]
230 nM | CC[C@H]1OC(=O)[C@H](C)[C@@H](O[C@H]2C[C@@](C)(OC)[C@@H](O)[C@H](C)O2)[C@H](C)[C@@H](O[C@@H]2O[C@H](C)C[C@H](N(C)C(=O)N3CCOCC3)[C@H]2O)[C@](C)(OC)C[C@@H](C)C(=O)[C@H](C)[C@H]2N(CCCN(Cc3c(Cl)cncc3Cl)c3ccc(OC)c(OC4CCCC4)c3)C(=O)O[C@]12C [Example 1]

Reference: patent publication US8865662B2, “Macrolides and their use” (Basilea Pharmaceutica AG, priority 2009, dated 2014)
